Measurements published in patent US12241114B2, “Biophysical platform for drug development based on energy landscape” (BRANDEIS UNIVERSITY, priority 2014, dated 2025).
Numbering of substitutions follows the chain as printed.

Legend:
[1] = target: T1, unphosphorylated Aurora A (Homo sapiens, UniProt O14965); assay: Stopped-flow tryptophan fluorescence binding and dissociation kinetics on unphosphorylated Aurora A
T1 sequence (O14965 122-403): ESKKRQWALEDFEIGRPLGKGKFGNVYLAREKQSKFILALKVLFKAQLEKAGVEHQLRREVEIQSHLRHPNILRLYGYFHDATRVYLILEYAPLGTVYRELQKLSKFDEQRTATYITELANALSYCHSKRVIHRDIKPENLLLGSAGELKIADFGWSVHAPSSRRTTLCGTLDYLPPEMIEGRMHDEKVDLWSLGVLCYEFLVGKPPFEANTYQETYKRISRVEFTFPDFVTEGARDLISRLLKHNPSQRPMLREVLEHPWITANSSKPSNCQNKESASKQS
Method: The stopped-flow instrument is a SX20 series from AppliedPhotophysics.
In the following equations, K1, K2 and K3 equal to:
[formula] Error bars calculations of the dissociation constant parameter (calculated from the kinetics) are calculated using classical error propagation equations. Aurora A Wild-Type Binding to MantATP

Aurora A wild-type = target: T2, Aurora A wild-type (Homo sapiens, UniProt O14965); assay: FRET stopped-flow kinetics of MantATP binding to Aurora A; details: 10° C., double exponential
T2 sequence (O14965 122-403): T1 sequence (O14965 122-403)
Method: FRET using intrinsic tryptophan fluorescence is used to monitor MantATP binding kinetics to Aurora A at 10° C. […] In the release of MantATP experiment or koff, 10 μM/10 μM Aurora A/MantATP complex were diluted with buffer (ratio 1:10). A significant decrease in the fluorescence intensity of Aurora A (excitation at 295 nm, emission cut-off at 395 nm) can be seen due to the MantATP release.

Y199H modern Aurora A = target: T3, Y199H modern Aurora A (Homo sapiens, UniProt O14965, T288V/Y199H); assay: Isothermal titration calorimetry of TPX2 binding to Y199H Aurora A; details: Y199H versus modern Aurora A
T3 sequence (O14965 122-403 Y199H/T288V): T1 sequence (O14965 122-403) with Y78H, T167V
Method: FIGS. 33A-33C are plots and schematics showing Y199 is an Aurora A hotspot important in TPX2 binding.
All titrations were carried out using Nano ITC (TA instruments) and analyzed via the NanoAnalyze software using the independent fit model. Injectant was added in […] volume, every 180 s, with a constant stirring speed at 350 rpm and at 25° C. Prior to ITC titration, both protein and peptide were dialyzed/resuspended in 20 mM TrisHCl, 200 mM NaCl, 10% (v/v) glycerol, 1 mM TCEP, pH 7.50.

## CO[C@@H](C(=O)N1Cc2n[nH]c(NC(=O)c3ccc(N4CCN(C)CC4)cc3)c2C1)c1ccccc1 [Danusertib]
[1]
  tighter binding from the conformational change after drug binding: three orders of magnitude
  weakening of overall affinity by the DFG-in/-out equilibrium: 20%
[1]; 25° C., after 30-fold dilution of the complex
  dissociation kinetics: slow, taking hours to be released
[1]; 25° C., global fit
  Keq of the induced fit step: 5×10^−4

## Cc1ccc(NC(=O)c2ccc(CN3CCN(C)CC3)cc2)cc1Nc1nccc(-c2cccnc2)n1 [Gleevec]
[1]; 10° C., after 10-fold dilution of the complex
  apparent rate constant of dissociation: 50 s⁻¹
[1]; Gleevec versus Danusertib
  observed off rate, times faster than the Danusertib off rate: 10^6-10^7

## MantATP
Aurora A wild-type
  plateau of second observed rate constant: around 20 s^−1

## modern TPX2: modern-day TPX2 protein, allosteric activator of Aurora A, residues 1-45 (MSQVKSSYSYDAPSDFINFSSLDDEGDTQNIDSWFEEKANLENKL; UniProt Q9ULW0 1-45, looked up, fragment)
Y199H modern Aurora A
  weakening of binding by Y199H mutation of Aurora A: approximately 20 fold
